Data reported in patent publication USRE47141E1, “Methods of treating fibrosis, cancer and vascular injuries” (EWHA University—Industry Collaboration Foundation, priority 2010, dated 2018).

Experiments:
[1] = system: BALB/c 4T1 xenografted mice; test: Anti-metastatic effect on BALB/c 4T1 xenografted mice model; format: in vivo
Experimental: Female BALB/c mice were purchased from Orient Bio Inc. (Seoul, Korea). Animals were maintained in a temperature-controlled room (22° C.) and supplied with food and water ad libitum. 4T1 cells (1.2×10^4 cells) were suspended in PBS and implanted into the left #4 mammary fat pad of five to six-week-old female BALB/c mice (day 0). In Experiment 1, treatment was started after tumor implantation (day 0). […] In Experiment 2, treatment was started on day 4. […] In Experiment 3, treatment was started on day 4. […] In Experiment 4, 4T1 cells (1×10^4 cells) were suspended in PBS and implanted into the left #4 mammary fat pad of ten-week-old female BALB/c mice (day 0). Treatment was started on day 10. Example 61 (43.6 mg/kg) dissolved in saline was given to mice intraperitoneally every other day for 2.5 weeks. In all Experiments, mice were sacrificed at 24 to 72 h after the last dosing, and 15% India ink solution (Hardy Diagnostics) in PBS was immediately injected into the trachea. […] Number of metastatic nodule was counted on the surface of left lobe of lung, and picture of lung was taken with digital camera. The tumor size was measured using calipers, and the tumor volume was calculated by using the following equation: Tumor volume=(0.5236)×(width)^2×(length)
Either vehicle buffer (4 mM HCl, 1 mg/mL BSA) or TGF-β1 (50 ng/mouse) in vehicle buffer was given to mice intravenously at 2 h before mice were sacrificed. Tumor tissues from mice were lysed in RIPA buffer [50 mM Tris, pH 7.5, 150 mM NaCl, 0.1% sodium dodecyl sulfate, 0.5% sodium deoxycholate, 1% NP-40, 1 mM NaF, 1 mM Na3VO4, 1 mM PMSF, a protease inhibitor cocktail (1 tablet of Roche Diagnostics GmbH protease inhibitor cocktail/10 mL) (Roche)] for 20 min on ice. Lysates were cleared by centrifugation at 13000 rpm at 4° C. for 20 min. Protein content of supernatants was determined using Micro-BCA (bicinchoninic acid) protein assay kit (Thermo Scientific). Lysates containing 20-50 μg total protein were separated by electrophoresis on polyacrylamide gel and then electrophoretically transferred to polyvinylidene difluoride transfer membranes (Millipore, Billerica, Mass., USA). Membranes were blocked with 5% BSA (Sigma-Aldrich) in PBS containing 0.5% Tween-20 (PBST) for 1 h and incubated overnight at 4° C. with one of following antibodies: anti-phospho-Smad2 (Millipore), anti-Smad2/3 (BD Transduction Laboratories, NJ, USA), or anti-β-actin (Sigma-Aldrich) in PBST containing 1% BSA. […] Bound antibodies were detected using Western Blotting Luminol Reagent (SantaCruz Biotechnology). Band intensities were analyzed using a densitometer LAS-3000 imager (FUJIFILM, Tokyo, Japan).

MCF10A cells = test: Wound healing assay; format: cell-based; conditions: TGF-β1 2 ng/mL, 1 μM, 16 h
Experimental: MCF10A cells were seeded at 2×10^5 cells/well in 6-well plate. When each well was occupied by cells over 80% of the area, 10% FBS was changed to 0.2% FBS. […] Wound area change from 0 to 16 h was calculated based on Image J program (National Institutes of Health, MD, USA) based on phase-contrast images of cells taken by microscope.

[2] = system: bile duct-ligated (BDL) rats; test: Anti-fibrotic effect on bile duct-ligated liver fibrosis model; format: in vivo; conditions: for Body weight / Organ weight Liver / Organ weight Liver/Body / Organ weight Spleen / Organ weight Spleen/Body: BDL rats, mean ± S.E.
ALK4 = ALK4 (Homo sapiens (Human), UniProt P36896); test: Cell-free assay for inhibition of ALK4 kinase phosphorylation; format: biochemical
Chain of ALK4 (P36896 24-505): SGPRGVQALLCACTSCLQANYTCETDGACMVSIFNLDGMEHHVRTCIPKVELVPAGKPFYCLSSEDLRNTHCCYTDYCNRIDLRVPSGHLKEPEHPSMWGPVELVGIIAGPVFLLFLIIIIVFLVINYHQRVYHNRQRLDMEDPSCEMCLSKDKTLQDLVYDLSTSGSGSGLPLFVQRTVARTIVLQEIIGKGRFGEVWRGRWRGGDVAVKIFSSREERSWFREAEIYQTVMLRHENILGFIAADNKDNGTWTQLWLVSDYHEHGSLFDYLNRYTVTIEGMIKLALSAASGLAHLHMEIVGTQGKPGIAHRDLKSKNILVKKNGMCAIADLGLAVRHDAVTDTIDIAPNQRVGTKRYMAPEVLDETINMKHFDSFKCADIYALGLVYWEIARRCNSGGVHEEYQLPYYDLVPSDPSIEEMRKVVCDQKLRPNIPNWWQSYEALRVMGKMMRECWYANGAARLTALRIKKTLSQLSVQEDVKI
Experimental: ALK5 protein was expressed in Sf9 insect cells as human recombinant GST-fusion protein using the baculovirus expression system. Expressed protein was purified by affinity chromatography using GSH-agarose (Sigma-Aldrich). Kinase assay was performed in 96-well FlashPlates™ from Perkin Elmer (Boston, Mass., USA) in a 50 μL reaction volume. The reaction cocktail was pipetted in four steps in the following order: 20 μL of assay buffer (standard buffer), 5 μL of ATP solution in H2O, 5 μL of each test compounds of formula (I) in 10% DMSO, 10 μL of GSK3 (14-27) (200 ng)/10 μL of ALK5 solution (1 ng) (premixed). The reaction cocktail contained 60 mM HEPES-NaOH, pH 7.5, 3 mM MgCl2, 3 mM MnCl2, […], 1.2 mM DTT, 50 μg/mL PEG20000, 1 μM [γ-^33P]-ATP (approximately 2.5×10^5 cpm per well), 200 ng/10 μL GSK3 (14-27), and 1 ng/10 μL ALK5. The reaction cocktail was incubated at 30° C. for 60 min. […] Incorporation of ^33Pi (counting of “cpm”) was determined with a microplate scintillation counter (Microbeta, Wallac).
Inhibition of the ALK4 kinase phosphorylation by test compounds of formula (I) can be determined in a similar manner to that described above for ALK5 inhibition except that GST-tagged ALK4 (Invitrogen Corporation) and RBER-CHKtide are used in place of the GST-tagged ALK5 and GSK3 (14-27).

4T1 cells = test: Matrigel invasion assay; format: cell-based; conditions: TGF-β1 2 ng/mL, 20 h
Experimental: The upper surface of Transwells (6.5 mm diameter, 8 μm pore size; […] After incubation for 20 h at 37° C. in 5% CO2, the cells remaining on the upper surface of the membrane were removed with a cotton swab, and DAPI-stained cells remaining on the bottom surface were observed using fluorescence microscopy. Average cell number per view field was obtained from 5 random fields.

[3] = 5 mg/kg orally three times per week for four weeks
[4] = 10 mg/kg orally three times per week for four weeks
[5] = 20 mg/kg orally three times per week for four weeks
[6] = orally three times per week for four weeks, Example 2 5, 10, 20 mg/kg, Example 3 21.8, 43.6 mg/kg
[7] = orally three times per week for four weeks, Western blot

Cc1cccc(-c2[nH]c(CNc3ccccc3F)nc2-c2ccc3ncnn3c2)n1 [Example 2, N-((4-([1,2,4]triazolo[1,5-a]pyridin-6-yl)-5-(6-methylpyridin-2-yl)-1H-imidazol-2-yl)methyl)-2-fluoroaniline]
number of metastastic nodules on the lung ([1]; Example 3 13.6 or 27.3 mg/kg orally BID, four weeks, Example 2 5, 10, 20, or 40 mg/kg orally, Example 61 43.6 mg/kg intraperitoneally every other day, 2.5 weeks): significantly reduced
TGF-β1-induced Smad2 phosphorylation in tumor tissues ([1]; Experiment 3, 5, 10, 20, or 40 mg/kg orally every other day for 24 days, Western blot): suppressed
TGF-β1-induced cell migration (MCF10A cells): suppressed
Body weight [2, 3]: 324 ± 7.3 g
Organ weight Liver [2, 3]: 17.5 ± 1.82 g
Organ weight Liver/Body [2, 3]: 5.46 ± 0.62%
Organ weight Spleen [2, 3]: 2.00 ± 0.28 g
Organ weight Spleen/Body [2, 3]: 0.63 ± 0.09 %
Body weight [2, 4]: 312 ± 10.4 g
Organ weight Liver [2, 4]: 15.8 ± 1.88 g
Organ weight Liver/Body [2, 4]: 5.08 ± 0.60%
Organ weight Spleen [2, 4]: 1.57 ± 0.12 g
Organ weight Spleen/Body [2, 4]: 0.51 ± 0.05 %
Body weight [2, 5]: 312 ± 8.4 g
Organ weight Liver [2, 5]: 15.2 ± 1.80 g
Organ weight Liver/Body [2, 5]: 4.88 ± 0.63%
Organ weight Spleen [2, 5]: 1.50 ± 0.16 g
Organ weight Spleen/Body [2, 5]: 0.48 ± 0.05 %
BDL-induced histological change ([2]; liver, H&E staining): greatly abolished
body weight loss in BDL rats [2, 6]: recovered
organ (liver and spleen) weight in BDL rats [2, 6]: decreased
serum ALT in BDL rats [2, 6]: improved
serum AST in BDL rats [2, 6]: improved
fibronectin in BDL rat liver [2, 7]: suppressed
α-SMA in BDL rat liver [2, 7]: suppressed
IC50 (ALK4): 17.3 nM
TGF-β1-induced cell invasion (4T1 cells): suppressed
